Where two headings read alike, the source gives them in different places.
Tested on: dorsal skin of P53 mice
Conditions: for hair growth induction: summary of figures; for induction (of anagen / hair growth): 25, 50, 100 µg/mL injections, overall, two mice; for hair growth in injection spot: 3 µL on 3 consecutive days, 18 days after injection; for pigmentation at injection site: at P14
Source text: Follow up experiments included lower HA concentrations (below 250 .mu·g/mL). A small incision was done using a thin needle (insulin syringe) to facilitate injection. […] In FIGS. 5-8, when looking at the back of the mouse with the mouse's head at the top, the control (1% BSA) injection is top left, the 25 .mu·g/ml injection is top right, the 100 .mu·g/ml injection is bottom right, and the 50 .mu·g/ml injection is bottom left.
FIGS. 5 and 6 show representative images of two mice, each of which received injections of low molecular weight HA. FIGS. 7 and 8 show representative images of two mice, each of which received injections of high molecular weight HA.
For high molecular weight the injection site was monitored for 18 days for full anagen.

## hyaluronic acid [high molecular weight HA]
50 µg/mL
  hair growth induction: induces
100 µg/mL
  hair growth induction: induces
  induction (of anagen / hair growth): good induction
  pigmentation at injection site: apparent
FIG. 7 mouse, 50 µg/ml
  hair growth in injection spot: growth
FIG. 7 mouse, 100 µg/ml
  hair growth in injection spot: growth
FIG. 8 mouse, 25 µg/ml
  hair growth in injection spot: growth
FIG. 8 mouse, 50 µg/ml
  hair growth in injection spot: growth

## hyaluronic acid [low molecular weight HA]
25 µg/mL, mouse 2 (FIG. 6), only in one mouse
  anagen spot at injection site: nice anagen spot
100 µg/mL
  hair growth induction: induced hair growth
  induction (of anagen / hair growth): good induction
  pigmentation at injection site: apparent
FIG. 5 mouse, 25 µg/ml
  hair growth in injection spot: growth
FIG. 5 mouse, 100 µg/ml
  hair growth in injection spot: growth
FIG. 6 mouse, 25 µg/ml
  hair growth in injection spot: growth
FIG. 6 mouse, 100 µg/ml
  hair growth in injection spot: growth

## hyaluronic acid [intermediate weight HA]
  induction (of anagen / hair growth): no induction
